Source: patent publication US12435072B2, “Compounds” (Vicore Pharma AB, priority 2019, dated 2025)
Like-named read-outs stand apart in the source and are kept apart here.

Assays:
[1] = Metabolic stability in pooled human liver microsomes; format: in vitro ADME; settings: pooled human liver microsomes 0.5 mg/ml, 1 μM test compound, 37° C.
Protocol: Pooled human liver microsomes in PBS at a concentration of 0.5 mg/ml was incubated with or without 1 mM NADPH for 70 min at 37° C. Test compound was added after 10 minutes to a final concentration of 1 μM. Samples were withdrawn at 0, 5, 15 and 60 minutes and added to test tubes containing acetonitrile, to stop the reaction, and with terfenadine, used as internal standard. After centrifugation at 10 000×g for 5 minutes the supernatant was diluted 1:1 with 1% formic acid. Samples were separated on a reverse phase column and detected by triple quadrupole MSMS (Agilant model 6540). The concentration of the parent compound at the different time points was measured with an external standard curve using terfenadine as internal standard and the initial metabolic rate in the presence or absence of NADPH calculated.

[2] = biological target: T1, human recombinant AT2 receptor (Homo sapiens, UniProt P50052); assay: Binding to AT2 receptor, radiometric scintillation assay (Eurofins); settings: ligand 125I CGP 42112A, tested at 1, 10, 100 and 1000 nM
T1 construct: purchased Eurofins ITEM26
T1 sequence (P50052 1-363): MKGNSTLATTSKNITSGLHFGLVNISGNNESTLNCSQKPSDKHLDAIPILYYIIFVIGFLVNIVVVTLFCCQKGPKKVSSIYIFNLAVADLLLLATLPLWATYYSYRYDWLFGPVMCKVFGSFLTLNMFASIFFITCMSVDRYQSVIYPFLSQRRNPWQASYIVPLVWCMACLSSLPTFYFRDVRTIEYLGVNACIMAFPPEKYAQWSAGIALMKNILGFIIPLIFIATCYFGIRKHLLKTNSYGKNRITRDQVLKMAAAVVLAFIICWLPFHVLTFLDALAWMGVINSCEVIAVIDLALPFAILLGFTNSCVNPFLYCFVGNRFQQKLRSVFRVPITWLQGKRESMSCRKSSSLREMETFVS
Protocol: Compounds were evaluated for binding to the human recombinant AT2 and AT1 receptor according to Eurofins protocol ITEM26 and ITEM24 using a radiometric scintillation assay.

[3] = with 1 mM NADPH, read-out: T1/2, + NaDPH
[4] = without NADPH, read-out: T1/2, no NaDPH

Row | half-life at 1 μM [1, 3] | half-life at 1 μM [1, 4] | IC50 [2] | Compound
1 | > 1 h | > 1 h | 32 nM | Cc1nccn1Cc1ccc(-c2cc(CC(C)C)sc2S(=O)(=O)NC(=O)NCCCF)cc1 [Example 28, 1-(3-Fluoropropyl)-3-(5-isobutyl-3-{p-[(2-methyl-1H-imidazol-1-yl)methyl]phenyl}-2-thienylsulfonyl)urea]
2 | – | – | 33 nM | Cc1nccn1Cc1ccc(-c2cc(CC(C)C)sc2S(=O)(=O)NC(=O)NCCC(F)F)cc1 [Example 29, 1-(3,3-Difluoropropyl)-3-(5-isobutyl-3-{p-[(2-methyl-1H-imidazol-1-yl)methyl]phenyl}-2-thienylsulfonyl)urea]
3 | > 1 h | > 1 h | 25 nM | Cc1nccn1Cc1ccc(-c2cc(CC(C)C)sc2S(=O)(=O)NC(=O)NCCC(F)(F)F)c(F)c1 [Example 26, 3-(3-{2-Fluoro-4-[(2-methyl-1H-imidazol-1-yl)methyl]phenyl}-5-isobutyl-2-thienylsulfonyl)-1-(3,3,3-trifluoropropyl)urea]
4 | – | – | 61 nM | Cc1nccn1Cc1ccc(-c2cc(CC(C)C)sc2S(=O)(=O)NC(=O)NCC(F)(F)F)c(F)c1 [Example 27, 3-(3-{2-Fluoro-4-[(2-methyl-1H-imidazol-1-yl)methyl]phenyl}-5-isobutyl-2-thienylsulfonyl)-1-(2,2,2-trifluoroethyl)urea]
